“And” between values parts separate entries of the source, which are not always exact repeats. Identical values can stand only once.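 The compound was tested at five concentrations on cells cultured in 96-well plates, with a 48-hour exposure period. GI50 = concentration required for 50% inhibition of growth. TGI: total growth inhibition.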 Bounds are passed on as bounds.

Common to all, as to assay: DTP human tumour cell line panel, 48 h
The subject of experiment [1] is 786-0 renal.
For experiment [2], the system named is A549 NSCLC.
In experiment [3] the test system is COLO 205 colon.
Experiment [4] concerns EKVX NSCLC.
In experiment [5] the test system is HCT-116 colon.
For experiment [6], the system named is HT29 colon.
Experiment [7] relates to IGROV1 ovarian.
For experiment [8], the system named is NCI-H522 lung.
Experiment [9] has as its system OVCAR-8 ovarian.
Experiment [10] deals with RPMI-8226 leukemia.

Regarding `CC(=O)[CH-]C(=O)c1ccccc1.CC(=O)[CH-]C(=O)c1ccccc1.CC(C)CCCC(C)[C@H]1CCC2[C@@H]3CCC4C[C@@H]([O-])CC[C@]4(C)C3CC[C@@]21C.CC(C)CCCC(C)[C@H]1CCC2[C@@H]3CCC4C[C@@H]([O-])CC[C@]4(C)C3CC[C@@]21C.Cl.[Ti+4]` (stereo partly specified), the GI50 in experiment [1], in [2], in experiment [3], in [4], in [5] and in experiment [6] was above 25 µM throughout. In addition, the GI50 in experiment [7], in experiment [8], in experiment [9] and in experiment [10] was above 25 µM in each case. The TGI in [1], in experiment [2], in [3], in [4], in [5] and in [6] was above 25 µM throughout. Further, the concentration for total growth inhibition (TGI) in [7], in experiment [8], in experiment [9] and in [10] was above 25 µM each time.

For the compound `Nc1nc(N)c2ncn(Cc3c(Cl)cccc3Cl)c2n1`, the TGI in experiment [1], in experiment [2], in [3], in experiment [4], in experiment [5] and in [6] was above 100 µM each time. In addition, the concentration for total growth inhibition (TGI) in [7], in experiment [8], in experiment [9] and in [10] was above 100 µM each time.

For `Cc1cc2cc(Oc3ccnc(Nc4cccc(CS(=O)(=O)NCCN(C)C)c4)n3)ccc2[nH]1`, the GI50 in experiment [1] was 4.46 µM; in [2] it was 12 µM; in experiment [3], 4.47 µM; in experiment [4], 12.2 µM; in experiment [5] it was 3.33 µM; in [6], 2.96 µM. The GI50 was 4.51 µM in experiment [7], 3.69 µM in experiment [8], 15.8 µM in experiment [9] and 2.99 µM in experiment [10]. The total growth inhibition concentration (TGI) in [1] is 17 µM; in experiment [2], 25.5 µM; in [3] it was 16.9 µM; in experiment [4], 26.7 µM; in [5], 14 µM; in experiment [6], 10.6 µM. Besides, the TGI is 18.9 µM in experiment [7], 14.7 µM in [8], 36.1 µM in experiment [9] and 11.5 µM in experiment [10].

For the compound `CC(C)(C)OC(=O)N(CCCn1c2c(c3ccccc3c1=O)C(=O)c1ccccc1-2)CCN(CCCn1c2c(c3ccccc3c1=O)C(=O)c1ccccc1-2)C(=O)OC(C)(C)C`, the GI50 was 13.6 µM in experiment [1]; 25.4 µM in [2]; above 50 µM in experiment [3]; above 50 µM in [4]; 14.1 µM in [5]; above 50 µM in experiment [6]. The GI50 in [7] was 21.8 µM; in [8], 21.3 µM; in experiment [9], 24.6 µM; in [10] it was 12.1 µM. In addition, the TGI in experiment [1], in experiment [2], in experiment [3], in [4], in [5] and in experiment [6] was above 50 µM in each case. Moreover, the total growth inhibition concentration (TGI) in [7], in experiment [8], in [9] and in [10] was above 50 µM each time.

As for `CCN(CC)CCNc1ccc(CO)c2sc3ccccc3c(=O)c12`, the GI50 in [1] is 4.99 µM and 19.4 µM; in experiment [2], 3.2 µM; in experiment [4] it was 3.92 µM and 16.2 µM; in experiment [5], 4.28 µM; in [8] it was 1.48 µM and 8.14 µM; in experiment [9], 2.42 µM. Moreover, the GI50 in [10] is 2.51 µM and 1.59 µM. Moreover, the concentration for total growth inhibition (TGI) was 18.8 µM and 52.1 µM in experiment [1]; 13.6 µM and 21.4 µM and 18.2 µM in experiment [2]; 3 µM and 13.9 µM and 18 µM in [3]; 28.7 µM [middle of 4 runs] in [4]; 14 µM and 17.8 µM in [9].

In the case of `COc1ccc(OC)c(-c2cn3nc(-c4c[nH]c5ccc(Br)cc45)sc3n2)c1`, the GI50 in [1] is 2.16 µM; in experiment [2], 2.31 µM; in experiment [4], 2.83 µM; in [5], 1.67 µM; in experiment [6], 2.28 µM; in experiment [7] it was 2.27 µM. The GI50 in experiment [8] is 1.98 µM; in experiment [9], 3.01 µM; in experiment [10], 3.19 µM. Besides, the TGI in experiment [1] came out at 4.57 µM; in experiment [2], 5.31 µM; in [4] it was 11.4 µM; in [5] it was 3.28 µM; in experiment [6], 4.75 µM; in [7], 11.5 µM. For the same compound, the TGI in experiment [8] worked out at 4.81 µM; in experiment [9], 9.3 µM; in experiment [10], 20.4 µM.

In the case of `O=C(CN1C(=O)c2ccccc2C1=O)OC1C=CCCC1` (stereo unspecified), the total growth inhibition concentration (TGI) in experiment [1], in experiment [2], in experiment [3], in experiment [4], in [5] and in experiment [7] was above 100 µM each time. Also, the total growth inhibition concentration (TGI) in experiment [8], in experiment [9] and in experiment [10] was above 100 µM in each case.

Regarding `COc1ccc2c3c([nH]c2c1[N+](=O)[O-])C(C)N(C(=O)/C=C/c1ccccc1)CC3` (stereo unspecified), the TGI in experiment [1] is 25.8 µM; in experiment [2], 29.2 µM; in [3], above 100 µM; in [4], above 100 µM; in experiment [6] it was above 100 µM; in experiment [7], above 100 µM. Moreover, the TGI was above 100 µM in [8], above 100 µM in experiment [9] and 9.66 µM in experiment [10].

Consider `O=c1c2ccccc2c(C=NCCNCCO)c2oc3ccccc3n12`, for which the GI50 in experiment [1] is 12.4 µM; in experiment [2] it was 4.03 µM; in [3], 3.27 µM; in experiment [4] it was 9.3 µM; in [6] it was 3.33 µM; in [7], 7.64 µM. For the same compound, the GI50 in [8] was 16.7 µM; in experiment [9], 4.88 µM; in experiment [10], 7.67 µM. For the same compound, the concentration for total growth inhibition (TGI) in experiment [1] was 24.9 µM; in [2], 17 µM; in experiment [3], 15.8 µM; in experiment [4] it was 21.2 µM; in [6], 16.5 µM; in [7] it was 24 µM. Moreover, the TGI in experiment [8] was found to be 37.7 µM; in [9] it was 19.7 µM; in experiment [10] it was 31.6 µM.

The GI50 is the concentration at which growth is held to half of that of the control. In general, TGI refers to the concentration at which net growth stops. Low readings indicate more potent growth arrest, high ones less potent growth arrest.

These data come from PubChem BioAssay (NCI).
